Values joined by “and” are separate entries in the source; they are usually repeats but may differ in a detail not shown here. Identical values can stand only once.
Experiments:
[1] = NaCl extraction from 0.4M NaCl water by ASM + Calix[4]Est in chloroform (Example 11); conditions: for NaCl - 20° C. % ext (average) / NaCl - 60° C. % ext (average): average molar extraction; for Mol % Cl- extracted from the water to be treated / Mol % Na+ extracted from the water to be treated: CEM 0.3 Mol/L, ASM 0.3 Mol/L in CHCl3, 0.4 M NaCl; for Δ % ext: difference 20° C. minus 60° C.
Description: The extraction composition is obtained by solubilizing an amount of 4-tert-butyl Calix[4]arene tetraethyl Ester (CAS No. 97600-39-0) and ASM in chloroform CHCl3 to obtain a final concentration after solubilization of the CEM and ASM of 0.3 mol/L for Calix[4]Est and of 0.3 mol/L for ASM, respectively. These sealed formulations were then orbitally stirred at 500 rpm for 2 hours after adding an equivalent volume of twice distilled water to allow water saturation of the entire formulation and control of pH output (pH=7). The extraction composition is then put to stand to settle. All the compositions tested are stable and rapidly decanted (a few minutes at the most).
A 0.4 mol/L NaCl aqueous solution was prepared from twice distilled water.
The organic extraction composition is then slightly heated to promote solubilization of the compounds by hot air gun (temperature of about 50 to 60° C.) for a few seconds (10 to 30 seconds) until a clear solution is obtained.
3 mL of the organic extraction composition is then removed from the lower phase of the settled two-phase mixture and transferred to a vial containing 3 mL of salt water at 0.4 M NaCl and then the flask is sealed and orbitally stirred (at 500 revolutions per minute), for 2 hours at room temperature (RT), that is to say between 20 and 25° C. In the case of extraction at 60° C., magnetic stirring (at 500 revolutions per minute), for 2 hours, is carried out with indirect heating in a metal mold on a heating plate. It is verified that droplets of the order of 1-2 mm are present during these agitations in order to be certain to achieve equilibrium in the NaCl distribution between the two liquid phases at the end of stirring. The appearance of the organic and aqueous phases is clear and colorless or slightly cloudy.
After stirring for 2 hours, stirring is stopped and the solution is put to stand to settle within 10 minutes, at least until the two phases have completely separated off, at the temperature of the test. The upper aqueous phase is then removed and then stirred and diluted for analysis of its salinity by a Metrohm Ion Chromatograph incorporating a suitable cation analysis column and a suitable anion analysis column. Similarly, the initial aqueous solution of NaCl at 0.4M is also analyzed by this ion chromatograph to determine its relative molar concentration in sodium and in chlorides. AN extractions and analyzes were duplicated.

[2] = NaCl extraction from 0.2M NaCl water by ASM/CEM composition, ion chromatography of treated water; conditions: ASM: 3TFMPhOH; CEM 0.2M; NaCl 0.2M water
Description: To 3 mL of 3-(trifluoromethyl)phenol, was added 217 mg of Dibenzo-18-crown-6 in order to obtain a formulation with 0.2 mole/L of DB18C6. This sealed formulation was then orbitally stirred at 500 rpm overnight after 1 mL of distilled water was added twice to allow water saturation of the whole.
The next morning, an aqueous 0.2 mol/L NaCl solution was prepared from twice distilled water, while the formulation that was stirred overnight was allowed to stand for decantation. A clear decantation of the two colorless phases is obtained in a few minutes. 3 mL of the organic extraction solution is then removed and transferred to a flask containing 3 mL of this salt water containing 0.2 M NaCl, then the flask is sealed and orbitally stirred (usually 500 rpm), for 3 hours and at room temperature. It is verified that droplets of the order of 1-2 mm are present in quantity at the selected stirring speed (400 to 900 rpm).
After stirring for 2 hours, stirring is stopped and the whole is left to stand for decantation for at least 10 minutes until the two phases are completely separated. The upper aqueous phase is then removed and then stirred and diluted for analysis of its salinity by a Metrohm Ion Chromatography Incorporating a suitable cation analysis column and a suitable anion analysis column. Similarly, the initial aqueous solution of 0.2M NaCl is also analyzed by this ion chromatography equipment to determine its relative concentration of sodium and chlorides. […]

[3] = methanol; cited from earlier work
[4] = methanol, published complexing constants; cited from earlier work

CCCCCCCCCC(=O)Nc1cc(C(F)(F)F)cc(C(F)(F)F)c1 [ASMC9, N-[3,5-bis(trifluoromethyl)phenyl]decanamide]
NaCl - 20° C. % ext (average) [1]: 24.4%
Mol % Cl- extracted from the water to be treated ([1]; 60° C.): 6.9% and 8.0%
Mol % Na+ extracted from the water to be treated ([1]; 60° C.): 5.4% and 5.7%
NaCl - 60° C. % ext (average) ([1]; 60° C.): 6.5%
Mol % Cl- extracted from the water to be treated ([1]; RT): 27.1% and 23.8%
Mol % Na+ extracted from the water to be treated ([1]; RT): 25.2% and 21.7%
Δ % ext [1]: 17.9%

CCCCCCCCCCCC(=O)Nc1cc(C(F)(F)F)cc(C(F)(F)F)c1 [ASMC11, N-[3,5-bis(trifluoromethyl)phenyl]dodecanamide]
NaCl - 20° C. % ext (average) [1]: 23.8%
Mol % Cl- extracted from the water to be treated ([1]; 60° C.): 4.9% and 7.7%
Mol % Na+ extracted from the water to be treated ([1]; 60° C.): 3.4% and 7.1%
NaCl - 60° C. % ext (average) ([1]; 60° C.): 5.8%
Mol % Cl- extracted from the water to be treated ([1]; RT): 24.5% and 25.3%
Mol % Na+ extracted from the water to be treated ([1]; RT): 22.4% and 23.1%
Δ % ext [1]: 18.0%

CCCCCCCCCCCCCC(=O)Nc1cc(C(F)(F)F)cc(C(F)(F)F)c1 [ASMC13, N-[3,5-bis(trifluoromethyl)phenyl]tetradecanamide]
NaCl - 20° C. % ext (average) [1]: 25.0%
Mol % Cl- extracted from the water to be treated ([1]; 60° C.): 6.9% and 9.4%
Mol % Na+ extracted from the water to be treated ([1]; 60° C.): 5.9% and 9.0%
NaCl - 60° C. % ext (average) ([1]; 60° C.): 7.8%
Mol % Cl- extracted from the water to be treated ([1]; RT): 26.2% and 27.4%
Mol % Na+ extracted from the water to be treated ([1]; RT): 22.7% and 23.8%
Δ % ext [1]: 17.2%

Nc1cc(C(F)(F)F)cc(C(F)(F)F)c1 [AnilineF*, 3,5-Di(trifluoromethyl)aniline, reference compound]
NaCl - 20° C. % ext (average) [1]: 2.7%
Mol % Cl- extracted from the water to be treated ([1]; 60° C.): not detected
NaCl - 60° C. % ext (average) ([1]; 60° C.): 0.0%
Mol % Cl- extracted from the water to be treated ([1]; RT): 4.3% and 2.9%
Mol % Na+ extracted from the water to be treated ([1]; RT): 2.0% and 1.8%
Δ % ext [1]: 2.7%

C1CCC2OCCOCCOCCOCCOC2C1 (centres unmarked) [C15C5, Perhydrobenzo[b]-1,4,7,10,′3-pentaoxacyclopentadecane]
Extraction rate at 23° C., Cl− [2]: 30.7%
Extraction rate at 23° C., Na+ [2]: 21.0%
Extraction rate at 23° C., mean NaCl [2]: 26.0%
Log K(K+, MeOH, 25° C.) [3]: 3.96
Log K(Na+, MeOH, 25° C.) [4]: 3.71-3.9

Reference: US11731933B2, “Device and method for the desalination of water by means of thermal deionisation and liquid-phase ion extraction liquid” (ADIONICS, priority 2015, dated 2023)
